# Reference: patent US20260207668A1, “MANIPULATION OF ADRENERGIC RECEPTORS TO INFLUENCE IMMUNE CELL DIFFERENTIATION AND FUNCTION” (Salk Institute for Biological Studies, priority 2022, published 2026)
# How the values were obtained:
# ADRB1 vs. ADRB2 = settings: relative to β1; cited from earlier work
# YUMMER1.7 melanomas = assay: YUMMER1.7 melanoma in mice, beta-blocker alone or with ICB; assay type: in vivo; settings: for cytokine production by CD8+ T cells: combination with ICB, tumor CD8+ T cells stimulated with PMA/ionomycin
# LCMV-clone 13 = assay type: in vivo, mice
# PDAC tumors = assay: Orthotopic PDAC (6419c5) in mice, beta-blocker alone or with ICB; assay type: in vivo; settings: for tumor growth: agent alone; for tumor growth (abdominal ultrasound volume and tumor mass): in combination with ICB (anti-PD-1 + anti-CTLA-4)
# ADRB1 = ADRB1 (Mus musculus, UniProt P34971); set-up: dose or concentration left out as unconfirmed; settings: Adrb1 OE P14+ cells vs empty vector; for CD8+ T cell cytokine production: gp33 stimulation; for CD8+ T cell proliferation: up to 6 days of culture
# ADRB1, sequence (P34971 whole entry): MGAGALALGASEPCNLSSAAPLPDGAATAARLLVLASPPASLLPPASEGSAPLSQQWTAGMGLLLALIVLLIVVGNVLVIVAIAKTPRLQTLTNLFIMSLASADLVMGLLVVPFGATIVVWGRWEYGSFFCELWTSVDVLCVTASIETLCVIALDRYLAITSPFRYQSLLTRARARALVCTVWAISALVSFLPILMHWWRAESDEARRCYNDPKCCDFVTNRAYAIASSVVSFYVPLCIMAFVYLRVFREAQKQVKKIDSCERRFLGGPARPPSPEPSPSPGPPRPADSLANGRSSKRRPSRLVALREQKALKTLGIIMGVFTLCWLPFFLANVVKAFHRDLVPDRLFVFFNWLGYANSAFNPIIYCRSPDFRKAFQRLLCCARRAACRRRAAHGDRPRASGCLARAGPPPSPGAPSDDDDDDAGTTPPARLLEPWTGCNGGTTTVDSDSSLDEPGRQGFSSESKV
# [1] = tested on: CD8+ T cells in PDAC tumors; assay: scRNA Seq of tumor infiltrating T cells from PDAC tumors; assay type: in vivo, mice
# Procedure: For scRNA Seq of PDAC tumors 4 tumors each per treatment condition were pooled and stained for sorting. The following cell populations were sorted into RPMI supplemented with 20% fetal bovine serum: Thy1.2^+ CD45.2^+ (T cells), Thy1.2^− CD45.2^+ (Non T cell leukocytes), YFP^+ CD45.2^− (tumor cells). Sorted cells were spun down at 420 rcf at 4° C. for 4 minutes, resuspended in PBS+2% fetal bovine serum and mixed at 8 k Thy1.2^+ CD45.2^+, 10 k Thy1.2^− CD45.2^+, 2 k YFP^+ CD45.2^− for a total of 20 k cells per sample.
# Samples were then loaded onto Chromium Chip G (10× Genomics) and partitioned into Gel Bead-in-Emulsions using a chromium controller (10× Genomics). Single cell RNA libraries were generated following the manufacturer's instructions of the Chromium Next GEM Single Cell 3′ Reagent Kit v3.1 (10× Genomics) followed by sequencing on a NovaSeq6000 at the NGS Core of the Salk Institute. Cellranger count was used to align reads to the mm10 genome and YFP. The resulting counts matrix was then processed using the R package scran^54 and outlying cells identified with quickPerCellQC (stats, percent_subsets=“subsets_Mito_percent”) were discarded. Data was log normalized using quickCluster, computeSumFactors and logNormCounts. The top 10% most variable genes were calculated using modelGeneVarByPoisson and getTopHVGs and then used in the PCA calculation using denoisePCA. The top 50 principal components were used to calculate a UMAP dimensional reduction using the runUMAP function (metric=“cosine”, min_dist=0.3 and n_neighbors=30). Leiden clustering was performed with igraph's cluster_leiden (with resolution=0.05) after running buildSNNGraph (with k=25). Cell types were annotated using SingleR^55 and the ImmGenData labels as a reference using default parameters. For further analysis the dataset was filtered on T cells according to the SingleR labels and variable genes, PCA and UMAP were calculated with the same settings described above. Clustering of T cells was performed using cluster_leiden with the resolution set to 1.8. For visualization, data imputation was performed using MAGIC^56 using the exact solver. To assign biological relevance to the T cell clusters, a heatmap of the median log normalized expression (using aggregateAcrossCells) of selected markers was generated and visualized using ComplexHeatmap^57. Differential genes for the clusters were identified by performing pairwise comparison of one cluster against all other clusters using the findMarkers function (test.type=“binom”, lfc=0.1, direction=“up”). Gene signatures for T cell exhaustion and TRn cells were obtained from Wherry et al and Milner et al respectively^45,58 in addition to the MSigDB hallmark gene sets. Gene signature scores were calculated using AUCell^59 (aucMaxRank set to 5%). […]
# [2] = gp33+ CD8+ T cells, d37 p.i., vs untreated
smiles,measurement,setting,value
CC(C)NCC(O)COc1ccc(CC(N)=O)cc1 (stereo not shown) [atenolol],block of the β2-adrenergic receptor,ADRB1 vs. ADRB2,to a lower degree
same,"tumor cell proliferation (tumor expression of Ki67 relative to IgG, IHC)","YUMMER1.7 melanomas; beta-blocker alone vs IgG, YUMMER tumors",does not directly affect tumor cell proliferation
same,effects on differentiation of exhausted T cells,YUMMER1.7 melanomas; combination with ICB (anti-PD-1 + anti-CTLA-4),did not extend beyond those of the checkpoint therapy alone
same,tumor size (normalized tumor mass relative to IgG control),"YUMMER1.7 melanomas; combination with ICB (anti-PD-1 + anti-CTLA-4), compared to untreated or beta-blocker alone",significantly smaller
same,cytokine production by CD8+ T cells,YUMMER1.7 melanomas,dramatically increased
same,"frequencies of IFNγ-, TNF- and GZMB-producing virus-specific CD8+ T cells","LCMV-clone 13; after gp33 stimulation for 6 h, d37 p.i., vs untreated",higher frequencies
same,"expansion of virus-specific CD8+ T cells that displayed features of TEXprog, at the expense of TEXeff and TEXterm","LCMV-clone 13; atenolol 0.5 mg/ml in drinking water throughout infection vs untreated, spleen, d37 p.i.",greater expansion
same,amounts of CREM in virus-specific CD8+ T cells,LCMV-clone 13; [2],lowered
same,amounts of cAMP in virus-specific CD8+ T cells,LCMV-clone 13; [2],lowered
same,viral titers,"LCMV-clone 13; serum of LCMV-clone 13-infected mice, vs untreated",lower viral titers
same,tumor growth,PDAC tumors,failed to suppress tumor growth
same,tumor growth (abdominal ultrasound volume and tumor mass),PDAC tumors,failed to suppress tumor growth
NC[C@H](O)c1ccc(O)c(O)c1 [noradrenaline],CD8+ T cell cytokine production,ADRB1,impairs
same,CD8+ T cell proliferation,ADRB1,impairs
CNCC(O)c1ccc(O)c(O)c1 (stereo not shown) [adrenaline],CD8+ T cell cytokine production,ADRB1,impairs
same,CD8+ T cell proliferation,ADRB1,impairs
CC(C)NCC(O)COc1cccc2ccccc12 (stereo not shown) [propranolol],T cell clusters 1 and 5 (TRM-like and exhausted CD8+ T cells),[1]; combination treatment with ICB,enriched
same,"cytokine and chemokine production (Gzma, Tgfb1, Gzmb, Xcl1, Ccl3, Ccl4, Ifng, Prf1) of CD8+ T cells",[1]; combination treatment with ICB,enhanced
same,"signatures for T cell response, exhaustion and TRM",[1]; combination treatment with ICB,enriched
same,upregulated genes in CD8+ T cells compared to the isotype control,[1]; propranolol and ICB therapy,272 genes
same,"tumor cell proliferation (tumor expression of Ki67 relative to IgG, IHC)","PDAC tumors; beta-blocker alone vs IgG, PDAC tumors",does not directly affect tumor cell proliferation
same,CD8+ T cells in the tumors,PDAC tumors; combination with ICB,increase
same,production of IFNγ and GZMB,"PDAC tumors; combination with ICB, after PMA/ionomycin stimulation",increased production
same,expression of the activation/exhaustion markers PD-1 and TIM3,"PDAC tumors; combination with ICB, tumor CD8+ T cells",higher expression
same,tumor growth (abdominal ultrasound volume and tumor mass),PDAC tumors,significantly reduced
Cc1ccc(OCC(O)C(C)NC(C)C)c2c1CCC2 (stereo not shown) [ICI 11855135],tumor growth,PDAC tumors,failed to suppress tumor growth
same,tumor growth (abdominal ultrasound volume and tumor mass),PDAC tumors,failed to suppress tumor growth
Cn1cc(C(F)(F)F)nc1-c1ccc(OCC(O)CNCCOc2ccc(O)c(C(N)=O)c2)cc1 (stereo not shown) [CGP 20712A],cytokine production by CD8+ T cells,YUMMER1.7 melanomas,significantly increased
